Assay results from patent US8895504B2, “Amylin derivatives” (priority 2008, dated 2014).
pEC50: −log10 of the molar value. *1 amine or outer side, *2 acyl side, *3 side chain or, on linkers, in order; H or OH if unused. Where a SMILES comes first, the peptide text is derived from it. Bridges are numbered along the chain shown (N, C = ends). The star is where a group is joined. C20 diacid = O=C(O)CCCCCCCCCCCCCCCCCCC(=O)*; γGlu = O=C(O)[C@H](CCC(=O)[*:2])N[*:1]; AEEA = NCCOCCOCC(=O)O

These compounds were tested against T1, Amylin 3(a) receptor (human calcitonin receptor (CTa) and RAMP-3) (Homo sapiens, UniProt O60896+P30988) (assay: Luciferase assay (III), BHK Amylin 3(a)//CRE-luc cells). Settings: BHK cells with Amylin 3(a) receptor and CRE luciferase reporter, 4 hours incubation; read-out: Potency Luciferase.
T1 construct: expressed in transfected cells; host or cells: BHK570 cells, stably transfected with a CRE-luciferase reporter
Assay type: cell-based
How it was run: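 BHK570 cells stably expressing CTa, RAMP-3 and a CRE-luciferase reporter, seeded at about 20,000 cells/well and grown overnight. Cells were exposed to standard or sample for 4 h at 37° C in phenol red-free DMEM with 10% FBS and 10 mM Hepes, pH 7,4. Luminescence was read after 30 min LucLite at room temperature.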

T1 sequence (O60896 24-148): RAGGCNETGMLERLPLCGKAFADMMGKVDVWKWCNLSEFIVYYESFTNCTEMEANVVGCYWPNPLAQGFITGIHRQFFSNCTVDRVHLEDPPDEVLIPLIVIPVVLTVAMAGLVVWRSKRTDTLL
T1 sequence (P30988 25-474): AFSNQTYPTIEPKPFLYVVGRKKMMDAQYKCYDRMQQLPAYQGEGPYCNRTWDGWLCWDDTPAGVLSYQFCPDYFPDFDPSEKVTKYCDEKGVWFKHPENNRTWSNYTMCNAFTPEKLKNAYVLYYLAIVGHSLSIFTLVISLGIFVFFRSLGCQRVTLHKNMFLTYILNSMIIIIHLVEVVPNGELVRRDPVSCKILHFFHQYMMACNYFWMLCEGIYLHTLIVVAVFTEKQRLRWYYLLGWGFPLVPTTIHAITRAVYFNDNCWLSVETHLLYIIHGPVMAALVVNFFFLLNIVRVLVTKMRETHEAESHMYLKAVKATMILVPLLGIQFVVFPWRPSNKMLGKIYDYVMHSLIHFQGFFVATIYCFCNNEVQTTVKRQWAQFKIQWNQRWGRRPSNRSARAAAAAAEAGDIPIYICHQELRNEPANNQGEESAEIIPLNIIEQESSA

| SMILES | pEC50 |
| --- | --- |
| CC[C@H](C)[C@H](NC(=O)[C@@H]1CCCN1C(=O)CNC(=O)[C@H](Cc1ccccc1)NC(=O)[C@H](CC(N)=O)NC(=O)[C@H](CC(N)=O)NC(=O)[C@H](CO)NC(=O)[C@H](CO)NC(=O)[C@H](Cc1c[nH]cn1)NC(=O)[C@H](CCCNC(=N)N)NC(=O)[C@H](CC(C)C)NC(=O)[C@H](Cc1ccccc1)NC(=O)[C@H](CC(N)=O)NC(=O)[C@H](C)NC(=O)[C@H](CC(C)C)NC(=O)[C@H](CCCNC(=N)N)NC(=O)[C@H](CCC(N)=O)NC(=O)[C@@H](NC(=O)[C@H](C)NC(=O)[C@@H]1CSSC[C@H](NC(=O)[C@H](CCCNC(=N)N)NC(=O)[C@H](Cc2c[nH]cn2)NC(=O)[C@H](Cc2c[nH]cn2)NC(=O)COCCOCCNC(=O)CC[C@H](NC(=O)CCCCCCCCCCCCCCCCCCC(=O)O)C(=O)O)C(=O)N[C@@H](CC(N)=O)C(=O)N[C@@H]([C@@H](C)O)C(=O)N[C@@H](C)C(=O)N[C@@H]([C@@H](C)O)C(=O)N1)[C@@H](C)O)C(=O)N[C@@H](CC(C)C)C(=O)N1CCC[C@H]1C(=O)N1CCC[C@H]1C(=O)N[C@H](C(=O)N[C@@H](CC(N)=O)C(=O)N[C@H](C(=O)NCC(=O)N[C@@H](CO)C(=O)N[C@@H](CC(N)=O)C(=O)N[C@H](C(=O)N[C@@H](Cc1ccc(O)cc1)C(N)=O)[C@@H](C)O)C(C)C)[C@@H](C)O [Example 57, N-alpha-[2-(2-{2-[4-(S)-Carboxy-4-(19-carboxynonadecanoylamino)butyrylamino]ethoxy}ethoxy)acetyl]-His-His-[Arg1,Arg17]-pramlintide] ({C20 diacid-γGlu-AEEA}-HHRCNTATCATQRLANFLRHSSNNFGPILPPTNVGSNTY-NH2; disulfide 4-9) | 9.52 |
| CC[C@H](C)[C@H](NC(=O)[C@@H]1CCCN1C(=O)CNC(=O)[C@H](Cc1ccccc1)NC(=O)[C@H](CC(N)=O)NC(=O)[C@H](CC(N)=O)NC(=O)[C@H](CO)NC(=O)[C@H](CO)NC(=O)[C@H](Cc1c[nH]cn1)NC(=O)[C@H](C)NC(=O)[C@H](CC(C)C)NC(=O)[C@H](Cc1ccccc1)NC(=O)[C@H](CC(N)=O)NC(=O)[C@H](C)NC(=O)[C@H](CC(C)C)NC(=O)[C@H](CCCNC(=N)N)NC(=O)[C@H](CCC(N)=O)NC(=O)[C@@H](NC(=O)[C@H](C)NC(=O)[C@@H]1CSSC[C@H](NC(=O)[C@H](CCCCN)NC(=O)[C@H](CCCNC(=N)N)NC(=O)COCCOCCNC(=O)CC[C@H](NC(=O)CCCCCCCCCCCCCCCCCCC(=O)O)C(=O)O)C(=O)N[C@@H](CC(N)=O)C(=O)N[C@@H]([C@@H](C)O)C(=O)N[C@@H](C)C(=O)N[C@@H]([C@@H](C)O)C(=O)N1)[C@@H](C)O)C(=O)N[C@@H](CC(C)C)C(=O)N1CCC[C@H]1C(=O)N1CCC[C@H]1C(=O)N[C@H](C(=O)N[C@@H](CC(N)=O)C(=O)N[C@H](C(=O)NCC(=O)N[C@@H](CO)C(=O)N[C@@H](CC(N)=O)C(=O)N[C@H](C(=O)N[C@@H](Cc1ccc(O)cc1)C(N)=O)[C@@H](C)O)C(C)C)[C@@H](C)O [Example 24, N-alpha-[2-(2-{2-[4-(S)-Carboxy-4-(19-carboxynonadecanoylamino)butyrylamino]ethoxy}ethoxy)acetyl]-Arg-[Ala17]-pramlintide] ({C20 diacid-γGlu-AEEA}-RKCNTATCATQRLANFLAHSSNNFGPILPPTNVGSNTY-NH2; disulfide 3-8) | 10.10 |
| CC[C@H](C)[C@H](NC(=O)[C@@H]1CCCN1C(=O)CNC(=O)[C@H](Cc1ccccc1)NC(=O)[C@H](CC(N)=O)NC(=O)[C@H](CC(N)=O)NC(=O)[C@H](CO)NC(=O)[C@H](CO)NC(=O)[C@H](Cc1c[nH]cn1)NC(=O)[C@H](Cc1c[nH]cn1)NC(=O)[C@H](CC(C)C)NC(=O)[C@H](Cc1ccccc1)NC(=O)[C@H](CC(N)=O)NC(=O)[C@H](C)NC(=O)[C@H](CC(C)C)NC(=O)[C@H](CCCNC(=N)N)NC(=O)[C@H](CCC(N)=O)NC(=O)[C@@H](NC(=O)[C@H](C)NC(=O)[C@@H]1CSSC[C@H](NC(=O)[C@H](CCC(=O)O)NC(=O)[C@H](CCC(=O)O)NC(=O)CC[C@H](NC(=O)CCCCCCCCCCCCCCCCCCC(=O)O)C(=O)O)C(=O)N[C@@H](CC(N)=O)C(=O)N[C@@H]([C@@H](C)O)C(=O)N[C@@H](C)C(=O)N[C@@H]([C@@H](C)O)C(=O)N1)[C@@H](C)O)C(=O)N[C@@H](CC(C)C)C(=O)N1CCC[C@H]1C(=O)N1CCC[C@H]1C(=O)N[C@H](C(=O)N[C@@H](CC(N)=O)C(=O)N[C@H](C(=O)NCC(=O)N[C@@H](CO)C(=O)N[C@@H](CC(N)=O)C(=O)N[C@H](C(=O)N[C@@H](Cc1ccc(O)cc1)C(N)=O)[C@@H](C)O)C(C)C)[C@@H](C)O [Example 50, N-alpha-[(S)-4-Carboxy-4-(19-carboxynonadecanoylamino)butyryl]-Glu-[Glu1,His17]-pramlintide] ({C20 diacid-γGlu}-EECNTATCATQRLANFLHHSSNNFGPILPPTNVGSNTY-NH2; disulfide 3-8) | 9.52 |
| CC[C@H](C)[C@H](NC(=O)[C@@H]1CCCN1C(=O)CNC(=O)[C@H](Cc1ccccc1)NC(=O)[C@H](CC(N)=O)NC(=O)[C@H](CC(N)=O)NC(=O)[C@H](CO)NC(=O)[C@H](CO)NC(=O)[C@H](Cc1c[nH]cn1)NC(=O)[C@H](Cc1c[nH]cn1)NC(=O)[C@H](CC(C)C)NC(=O)[C@H](Cc1ccccc1)NC(=O)[C@H](CC(N)=O)NC(=O)[C@H](C)NC(=O)[C@H](CC(C)C)NC(=O)[C@H](CCCNC(=N)N)NC(=O)[C@H](CCC(N)=O)NC(=O)[C@@H](NC(=O)[C@H](C)NC(=O)[C@@H]1CSSC[C@H](NC(=O)[C@H](CCCCN)NC(=O)[C@H](CCCNC(=N)N)NC(=O)[C@H](CCCCN)NC(=O)[C@H](CCC(=O)O)NC(=O)CCCCCCCCCCCCCCCCCCC(=O)O)C(=O)N[C@@H](CC(N)=O)C(=O)N[C@@H]([C@@H](C)O)C(=O)N[C@@H](C)C(=O)N[C@@H]([C@@H](C)O)C(=O)N1)[C@@H](C)O)C(=O)N[C@@H](CC(C)C)C(=O)N1CCC[C@H]1C(=O)N1CCC[C@H]1C(=O)N[C@H](C(=O)N[C@@H](CC(N)=O)C(=O)N[C@H](C(=O)NCC(=O)N[C@@H](CO)C(=O)N[C@@H](CC(N)=O)C(=O)N[C@H](C(=O)N[C@@H](Cc1ccc(O)cc1)C(N)=O)[C@@H](C)O)C(C)C)[C@@H](C)O [Example 9, N-alpha-[19-carboxynonadecanoyl]-Glu-Lys-Arg-[His17]-pramlintide] ({C20 diacid}-EKRKCNTATCATQRLANFLHHSSNNFGPILPPTNVGSNTY-NH2; disulfide 5-10) | 10.22 |
